Source: patent US12721818B2, “Compositions and methods for delivery of RNA” (Rejuvenation Technologies Inc., priority 2021, dated 2026)

Test: pK of the ionizable lipid (Table 6A)
Assay type: physicochemical
Conditions: ionizable lipid of the Table 6A formulation

## CCCCCCCC/C=C\CCCCCCCC(=O)Oc1ccc(CC(=O)OCCC2CCN(CCSSCCN3CCC(CCOC(=O)Cc4ccc(OC(=O)CCCCCCC/C=C\CCCCCCCC)cc4)CC3)CC2)cc1 [SS-OP]
  pK: ~6.4
